Where two headings read alike, the source gives them in different places.

The subject of the series is P-gp. As to the kind of experiment: Bidirectional transport in MDCKⅡ-MDR1 cell monolayers. The note with it: dog. In kind it is in vitro ADME. The procedure: To further validate the effect of P-gp on the transport of IMM-H004G or IMM-H004, MDCKⅡ-MDR1 cells were seeded onto polycarbonate membrane transwell inserts in 24-well plates and used for transport studies after 5 days or when the effective transepithelial electric resistance (TEER) values exceeded 300 Ω·cm^2. The monolayers were initially rinsed twice with HBSS. Subsequently, IMM-H004G or IMM-H004 (10 µmol/L) was added to either the apical or basolateral side of the monolayer. Aliquots of 50 µL were collected from the opposite compartment at various time points, covering a maximum duration of 120 min. Digoxin (5 μmol/L) was used as a positive substrate, while PSC833 (5 µmol/L) was used as an inhibitor in MDCKⅡ-MDR1 cells. The apparent permeability value (Papp) was calculated using the following equation:(2) Papp=dQ/dt/AC0 where dQ/dt is the slope of the cumulative transport amount over time during the study period. A is the base area of the insert, and C0 is the initial addition concentration.
The efflux ratio (ER) was calculated as follows:ER = Papp(B−A)/Papp(A−B) (3)

On to `C[C@H]1O[C@@H](O[C@H]2[C@@H](O)C[C@H](O[C@H]3[C@@H](O)C[C@H](O[C@H]4CC[C@@]5(C)[C@H](CC[C@@H]6[C@@H]5C[C@@H](O)[C@]5(C)[C@@H](C7=CC(=O)OC7)CC[C@]65O)C4)O[C@@H]3C)O[C@@H]2C)C[C@H](O)[C@@H]1O` [digoxin, reference compound], for which the efflux ratio at 120 min by setting is: (MDCK-MDR1, with PSC833 5 µmol/L, MDCKⅡ-MDR1, PSC833 5 µmol/L, read-out: efflux ratio (ER) in the presence of PSC833) 1.41; (MDCK-MDR1, MDCKⅡ-MDR1, no inhibitor, IMM-H004 10 µmol/L, digoxin 5 μmol/L, read-out: efflux ratio (ER)) 21.1.
